The results in this text go back to patent US20170210741A1, “Benzimidazole Compounds, Use As Inhibitors of WNT Signaling Pathway in Cancers, and Methods for Preparation Thereof” (Southern Research Institute, priority 2016, published 2017).

Common to all, as to format: cell-based
One assay has as its system L3.6pl. In words: In vitro cell viability assay (Cell Titer Glo), pancreatic cancer L3.6pl. Conditions: Homo sapiens, CSC enriching serum free medium, non-adherent plates, 72 h, read-out: Cell viability (IC50) L3.6pl CSC. The protocol: (§1) Breast cancer SUM159 was obtained from Asterand and grown according to supplier's recommendation. All other cell lines were obtained from ATCC and cultured in standard cell culture conditions with complete cell culture medium containing 10% FBS.
(§2) Cancer cells were seeded into optically clear tissue culture-treated black 96-well plates (for adherent cells) or low-attachment 96-well plates (for cancer stem cells) at 2,000-5000 cells/50 μL of media per well. The cells were treated with Wnt inhibitors at 0.1 to 10 μM for 72 h. Cell viability was measured by the Cell Titer Glo Assay from Promega.

A further assay deals with S2VP10. Nature of the assay: In vitro cell viability assay (Cell Titer Glo), pancreatic cancer S2VP10. To be noted: 72 h. As to the method:
as §1, §2

The next assay relates to MDA-MB-468. Nature of the assay: In vitro cell viability assay (Cell Titer Glo), breast cancer MDA-MB-468. Conditions: Homo sapiens, 72 h. The protocol: as §1, §2
(§3) Table 5 below illustrates the effects of the disclosed compounds on cell viability of breast cancer cell lines.

The next assay has as its system HCT116. Nature of the assay: In vitro cell viability assay (Cell Titer Glo), colorectal cancer HCT116. Conditions: Homo sapiens, HCT-116, 72 h. The protocol: as §1, §2
(§4) Table 4 below illustrates the effects of the disclosed compounds on cell viability of colorectal cancer cell lines.

The next assay concerns PANC-1. Nature of the assay: In vitro cell viability assay (Cell Titer Glo), pancreatic cancer PANC-1. Conditions: Homo sapiens, 72 h. As to the method: as §1, §2
The next assay relates to Wnt signaling. Nature of the assay: Wnt signaling reporter assay (Super8XTOPFlash luciferase) in LRP6-expressing HEK293 cells. To be noted: Homo sapiens, 24 h treatment, luciferase normalized to β-galactosidase, read-out: IC50 (effects on Wnt signaling). As to the method: HEK293 cells were plated into 24-well plates. After overnight culture, the cells were transiently transfected with 0.06 μg of the Super8XTOPFlash luciferase construct, 0.06 μg of β-galactosidase-expressing vector, and 0.06 μg of pCS-Myc-hLRP6 or control vector. After 24 h incubation, cells were treated with each individual compound in triplicate for 24 h. Cells were then lysed, and the luciferase and β-galactosidase activities were determined by the luciferase assay system (Promega) and β-galactosidase assay system (Promega), respectively. The luciferase activity was normalized to the β-galactosidase activity.
Table 2 below illustrates the effects of the disclosed compounds on Wnt signaling in LRP6-expressing HEK293 cells.

For the next assay, the system named is HT-29. Nature of the assay: In vitro cell viability assay (Cell Titer Glo), colorectal cancer HT-29. To be noted: Homo sapiens, 72 h. The protocol: as §1, §2, §4
Another assay has as its system SUM159. In words: In vitro cell viability assay (Cell Titer Glo), breast cancer SUM159. Conditions: 72 h. The protocol: as §1, §2, §3
For a further assay, the system named is HCC1143. Nature of the assay: In vitro cell viability assay (Cell Titer Glo), breast cancer HCC1143. To be noted: Homo sapiens, 72 h. As to the method: as §1, §2, §3
Another assay has as its system Suit-2. In words: In vitro cell viability assay (Cell Titer Glo), pancreatic cancer Suit-2. To be noted: 72 h. The protocol:
as §1, §2

For another assay, the system named is 2LMP. In words: In vitro cell viability assay (Cell Titer Glo), breast cancer 2LMP. Conditions: 72 h. As to the method: as §1, §2, §3

Molecules are shown by their SMILES. Where two headings read alike, the source gives them in different places.

Consider `FC(F)(F)Oc1ccc(-c2nc3cc(Cl)c(Cl)cc3[nH]2)cc1` [Compound 6, 5,6-Dichloro-2-(4-(trifluoromethoxy)phenyl)-1H-benzo[d]imidazole], for which the IC50 worked out at 930 nM in the assay on L3.6pl; 590 nM with S2VP10 (S2VP10, CSC enriching serum free medium, non-adherent plates, read-out: Cell viability (IC50) S2VP10 CSC); 2570 nM in the assay with S2VP10 (S2VP10, adherent, complete medium 10% FBS, read-out: Cell viability (IC50) S2VP10 Adherent); 330 nM with MDA-MB-468 (MDA-MB-468, CSC conditions, read-out: Cell viability (IC50) MDA-MB-468 CSC); 3830 nM in the assay with MDA-MB-468 (MDA-MB-468, adherent, read-out: Cell viability (IC50) MDA-MB-468 Adherent); 1610 nM in the assay with HCT116 (HCT116, CSC conditions, read-out: Cell viability (IC50) HCT116 CSC). For the same compound, the IC50 in the assay with HCT116 (HCT116, adherent, read-out: Cell viability (IC50) HCT116 Adherent) was found to be 3840 nM; in the assay with PANC-1 (PANC-1, adherent, complete medium 10% FBS, read-out: Cell viability (IC50) PANC-1 Adherent) it was 3440 nM; in the assay with PANC-1 (PANC-1, cancer stem cell (CSC) enriching serum free medium, non-adherent plates, read-out: Cell viability (IC50) PANC-1 CSC), 570 nM; with Wnt signaling it was 190 nM; with HT-29 (HT-29, CSC conditions, read-out: Cell viability (IC50) HT-29 CSC) it was 860 nM; in the assay with HT-29 (HT-29, adherent, read-out: Cell viability (IC50) HT-29 Adherent) it was 4380 nM. The IC50 in the assay with SUM159 (SUM159, CSC conditions, read-out: Cell viability (IC50) SUM159 CSC) worked out at 1170 nM; in the assay with SUM159 (SUM159, adherent, read-out: Cell viability (IC50) SUM159 Adherent), 1670 nM; in the assay on HCC1143 (HCC1143, CSC conditions, read-out: Cell viability (IC50) HCC1143 CSC), 1300 nM; in the assay on HCC1143 (HCC1143, adherent, read-out: Cell viability (IC50) HCC1143 Adherent), 3180 nM; with Suit-2 (Suit-2, CSC enriching serum free medium, non-adherent plates, read-out: Cell viability (IC50) Suit-2 CSC) it was 560 nM; in the assay with Suit-2 (Suit-2, adherent, complete medium 10% FBS, read-out: Cell viability (IC50) Suit-2 Adherent), 2120 nM. Also, the 50% inhibitory concentration (IC50) is 2900 nM with 2LMP (CSC conditions, read-out: Cell viability (IC50) 2LMP CSC) and 3840 nM in the assay on 2LMP (adherent, read-out: Cell viability (IC50) 2LMP Adherent).
